Data as given in the kinase profiling compilation of Christmann-Franck et al. (2016).

Assays:
Experiment in all cases: KINOMEscan competition binding
Details in all cases: compound 10.0 µM
[1] = target: STK17A (human) (UniProt Q9UEE5)
[2] = target: TAOK3 (human) (UniProt Q9H2K8)
[3] = target: STK36 (human) (UniProt Q9NRP7)
[4] = target: MAPKAPK2 (human) (UniProt P49137)
[5] = target: PRKAA1 (human) (UniProt Q13131)
[6] = target: PRKCE (human) (UniProt Q02156)
[7] = target: MAPK10 (human) (UniProt P53779)
[8] = target: MAPK4 (human) (UniProt P31152)
[9] = target: PIM2 (human) (UniProt Q9P1W9)
[10] = target: RET (human) (UniProt P07949)
[11] = target: CDK3 (human) (UniProt Q00526)
[12] = target: TIE1 (human) (UniProt P35590)
[13] = target: HIPK1 (human) (UniProt Q86Z02)
[14] = target: CDK15 (human) (UniProt Q96Q40)
[15] = target: ACVR1B (human) (UniProt P36896)
[16] = target: SRPK3 (human) (UniProt Q9UPE1)
[17] = target: PIM3 (human) (UniProt Q86V86)
[18] = target: STK25 (human) (UniProt O00506)
[19] = target: ROCK1 (human) (UniProt Q13464)
[20] = target: IKBKB (human) (UniProt O14920)
[21] = target: MAP3K7 (human) (UniProt O43318)
[22] = target: FGFR1 (human) (UniProt P11362)
[23] = target: LRRK2 (human) (UniProt Q5S007)
[24] = target: CSK (human) (UniProt P41240)
[25] = target: BMPR1A (human) (UniProt P36894)
[26] = target: PRKG2 (human) (UniProt Q13237)
[27] = target: TNNI3K (human) (UniProt Q59H18)
[28] = target: CDC42BPA (human) (UniProt Q5VT25)
[29] = target: PRKAA2 (human) (UniProt P54646)
[30] = target: PDGFRA (human) (UniProt P16234)
[31] = target: SIK1 (human) (UniProt P57059)
[32] = target: MAP3K5 (human) (UniProt Q99683)
[33] = target: MARK1 (human) (UniProt Q9P0L2)
[34] = target: GRK4 (human) (UniProt P32298)
[35] = target: CLK1 (human) (UniProt P49759)
[36] = target: MAP3K4 (human) (UniProt Q9Y6R4)
[37] = target: FLT3 (human) (UniProt P36888)
[38] = target: MAP3K1 (human) (UniProt Q13233)
[39] = target: NLK (human) (UniProt Q9UBE8)
[40] = target: TYK2 JH2 pseudokinase (human) (UniProt P29597)

Chain of TIE1 (human) (P35590 whole entry, looked up): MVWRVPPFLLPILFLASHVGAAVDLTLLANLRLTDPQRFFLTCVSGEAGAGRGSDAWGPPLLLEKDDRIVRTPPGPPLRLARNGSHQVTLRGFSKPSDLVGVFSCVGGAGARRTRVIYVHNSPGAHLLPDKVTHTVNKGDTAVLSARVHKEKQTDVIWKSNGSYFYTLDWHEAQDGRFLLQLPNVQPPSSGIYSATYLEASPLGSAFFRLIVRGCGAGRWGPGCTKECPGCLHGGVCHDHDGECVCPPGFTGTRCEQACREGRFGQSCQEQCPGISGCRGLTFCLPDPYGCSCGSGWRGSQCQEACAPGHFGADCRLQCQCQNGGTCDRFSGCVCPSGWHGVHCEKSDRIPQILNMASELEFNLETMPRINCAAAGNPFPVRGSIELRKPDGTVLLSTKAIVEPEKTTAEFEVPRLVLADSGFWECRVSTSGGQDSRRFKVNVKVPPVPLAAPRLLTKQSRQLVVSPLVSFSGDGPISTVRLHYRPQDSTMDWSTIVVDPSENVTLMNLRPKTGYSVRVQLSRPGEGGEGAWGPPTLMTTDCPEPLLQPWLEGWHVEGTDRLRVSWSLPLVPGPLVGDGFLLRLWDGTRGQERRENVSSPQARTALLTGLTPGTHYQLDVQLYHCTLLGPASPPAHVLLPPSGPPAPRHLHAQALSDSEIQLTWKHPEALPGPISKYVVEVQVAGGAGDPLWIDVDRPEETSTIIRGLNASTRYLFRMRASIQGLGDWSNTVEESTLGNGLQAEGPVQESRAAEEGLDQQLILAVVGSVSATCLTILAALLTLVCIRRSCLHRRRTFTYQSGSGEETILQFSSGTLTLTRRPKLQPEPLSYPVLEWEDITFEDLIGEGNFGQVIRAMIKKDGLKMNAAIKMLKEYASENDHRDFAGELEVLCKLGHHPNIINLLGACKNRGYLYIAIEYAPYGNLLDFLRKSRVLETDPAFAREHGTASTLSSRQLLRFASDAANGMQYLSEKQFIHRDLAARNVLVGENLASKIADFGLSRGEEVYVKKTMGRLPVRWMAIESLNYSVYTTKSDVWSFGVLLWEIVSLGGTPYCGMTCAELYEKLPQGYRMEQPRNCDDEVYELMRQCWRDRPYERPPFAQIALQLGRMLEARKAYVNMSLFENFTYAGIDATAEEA
Chain of MAP3K5 (human) (Q99683 whole entry, looked up): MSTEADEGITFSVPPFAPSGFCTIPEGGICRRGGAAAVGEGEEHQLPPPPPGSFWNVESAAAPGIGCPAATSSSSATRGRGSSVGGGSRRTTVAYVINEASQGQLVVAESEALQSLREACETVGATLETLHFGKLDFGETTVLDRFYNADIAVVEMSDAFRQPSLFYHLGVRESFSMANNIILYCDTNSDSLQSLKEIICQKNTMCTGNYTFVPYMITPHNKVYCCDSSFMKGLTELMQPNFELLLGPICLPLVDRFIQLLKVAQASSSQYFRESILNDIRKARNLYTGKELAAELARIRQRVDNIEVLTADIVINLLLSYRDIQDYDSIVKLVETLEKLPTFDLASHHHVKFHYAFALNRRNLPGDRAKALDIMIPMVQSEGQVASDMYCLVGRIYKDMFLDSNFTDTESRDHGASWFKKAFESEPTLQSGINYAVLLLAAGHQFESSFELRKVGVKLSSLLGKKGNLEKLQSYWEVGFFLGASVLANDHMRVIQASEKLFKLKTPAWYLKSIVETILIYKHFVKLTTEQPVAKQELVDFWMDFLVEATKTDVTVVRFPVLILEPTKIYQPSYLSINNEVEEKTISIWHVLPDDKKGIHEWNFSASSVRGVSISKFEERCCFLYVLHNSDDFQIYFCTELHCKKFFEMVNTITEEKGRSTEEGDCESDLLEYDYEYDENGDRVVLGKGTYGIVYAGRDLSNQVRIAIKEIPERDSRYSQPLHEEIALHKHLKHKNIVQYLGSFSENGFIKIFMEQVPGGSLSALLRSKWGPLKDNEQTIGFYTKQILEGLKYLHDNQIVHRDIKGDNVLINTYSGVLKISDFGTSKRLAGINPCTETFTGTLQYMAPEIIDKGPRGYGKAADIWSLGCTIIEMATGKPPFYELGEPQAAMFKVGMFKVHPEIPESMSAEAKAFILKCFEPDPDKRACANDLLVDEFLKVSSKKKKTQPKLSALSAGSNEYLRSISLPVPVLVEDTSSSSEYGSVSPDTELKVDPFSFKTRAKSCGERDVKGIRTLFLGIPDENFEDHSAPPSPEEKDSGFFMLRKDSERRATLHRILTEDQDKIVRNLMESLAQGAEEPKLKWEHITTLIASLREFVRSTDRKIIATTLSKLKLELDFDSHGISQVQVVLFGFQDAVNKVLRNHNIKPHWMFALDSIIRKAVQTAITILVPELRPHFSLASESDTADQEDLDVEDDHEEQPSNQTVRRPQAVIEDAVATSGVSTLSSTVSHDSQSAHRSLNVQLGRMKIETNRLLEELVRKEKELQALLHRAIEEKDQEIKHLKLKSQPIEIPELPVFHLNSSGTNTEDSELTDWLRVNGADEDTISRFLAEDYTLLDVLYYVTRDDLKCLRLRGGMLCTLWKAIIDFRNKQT
Chain of PRKG2 (human) (Q13237 whole entry, looked up): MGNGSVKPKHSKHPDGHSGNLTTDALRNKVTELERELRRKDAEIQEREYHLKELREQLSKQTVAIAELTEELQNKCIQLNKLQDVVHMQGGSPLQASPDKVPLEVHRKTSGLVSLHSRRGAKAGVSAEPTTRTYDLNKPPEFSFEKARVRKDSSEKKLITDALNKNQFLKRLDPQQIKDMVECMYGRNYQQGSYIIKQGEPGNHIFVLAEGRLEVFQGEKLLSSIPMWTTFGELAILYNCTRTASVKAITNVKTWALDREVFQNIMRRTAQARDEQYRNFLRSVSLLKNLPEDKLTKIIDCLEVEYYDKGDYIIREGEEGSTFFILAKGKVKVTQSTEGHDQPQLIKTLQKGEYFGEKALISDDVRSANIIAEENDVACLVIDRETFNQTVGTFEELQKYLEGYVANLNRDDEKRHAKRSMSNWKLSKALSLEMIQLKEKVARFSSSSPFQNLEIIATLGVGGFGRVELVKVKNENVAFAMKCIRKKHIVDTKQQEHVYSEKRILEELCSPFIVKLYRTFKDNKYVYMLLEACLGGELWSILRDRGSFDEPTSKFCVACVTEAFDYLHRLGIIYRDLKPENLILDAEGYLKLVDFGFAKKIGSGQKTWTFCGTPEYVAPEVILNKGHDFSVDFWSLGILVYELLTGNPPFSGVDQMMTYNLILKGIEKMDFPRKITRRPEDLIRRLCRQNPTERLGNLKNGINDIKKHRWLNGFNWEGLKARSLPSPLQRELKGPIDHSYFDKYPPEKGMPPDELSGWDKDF
Chain of STK36 (human) (Q9NRP7 whole entry, looked up): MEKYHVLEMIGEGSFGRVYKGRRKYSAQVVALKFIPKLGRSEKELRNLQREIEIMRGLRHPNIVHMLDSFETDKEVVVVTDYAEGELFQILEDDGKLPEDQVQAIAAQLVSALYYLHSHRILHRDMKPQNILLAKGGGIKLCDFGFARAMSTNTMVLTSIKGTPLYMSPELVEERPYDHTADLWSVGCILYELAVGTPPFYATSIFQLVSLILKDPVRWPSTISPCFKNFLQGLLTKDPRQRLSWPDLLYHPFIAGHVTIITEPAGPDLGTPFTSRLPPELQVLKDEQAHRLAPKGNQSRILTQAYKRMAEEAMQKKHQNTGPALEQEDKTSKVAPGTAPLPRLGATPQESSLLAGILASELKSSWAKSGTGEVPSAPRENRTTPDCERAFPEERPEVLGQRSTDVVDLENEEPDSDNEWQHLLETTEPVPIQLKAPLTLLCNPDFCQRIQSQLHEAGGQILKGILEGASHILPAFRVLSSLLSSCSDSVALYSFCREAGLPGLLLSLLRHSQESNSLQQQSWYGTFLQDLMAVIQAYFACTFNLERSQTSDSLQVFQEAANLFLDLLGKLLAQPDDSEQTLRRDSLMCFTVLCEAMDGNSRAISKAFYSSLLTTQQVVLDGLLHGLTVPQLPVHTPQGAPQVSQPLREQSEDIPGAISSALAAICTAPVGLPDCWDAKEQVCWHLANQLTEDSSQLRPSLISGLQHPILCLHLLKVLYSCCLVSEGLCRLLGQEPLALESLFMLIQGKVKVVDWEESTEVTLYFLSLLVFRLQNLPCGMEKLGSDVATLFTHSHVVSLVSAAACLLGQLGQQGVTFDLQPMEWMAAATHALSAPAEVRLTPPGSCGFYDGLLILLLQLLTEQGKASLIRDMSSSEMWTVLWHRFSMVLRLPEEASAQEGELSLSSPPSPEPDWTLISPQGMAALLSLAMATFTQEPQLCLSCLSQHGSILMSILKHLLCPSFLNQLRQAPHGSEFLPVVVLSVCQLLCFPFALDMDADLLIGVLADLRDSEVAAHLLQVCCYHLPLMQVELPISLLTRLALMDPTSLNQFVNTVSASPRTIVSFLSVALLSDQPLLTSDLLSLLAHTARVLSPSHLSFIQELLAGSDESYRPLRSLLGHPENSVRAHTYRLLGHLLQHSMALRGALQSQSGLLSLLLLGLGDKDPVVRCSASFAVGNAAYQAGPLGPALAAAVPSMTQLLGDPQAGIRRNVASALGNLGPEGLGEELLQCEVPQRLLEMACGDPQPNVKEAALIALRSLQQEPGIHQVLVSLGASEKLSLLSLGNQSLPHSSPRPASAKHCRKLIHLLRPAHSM
Chain of MAPKAPK2 (human) (P49137 whole entry, looked up): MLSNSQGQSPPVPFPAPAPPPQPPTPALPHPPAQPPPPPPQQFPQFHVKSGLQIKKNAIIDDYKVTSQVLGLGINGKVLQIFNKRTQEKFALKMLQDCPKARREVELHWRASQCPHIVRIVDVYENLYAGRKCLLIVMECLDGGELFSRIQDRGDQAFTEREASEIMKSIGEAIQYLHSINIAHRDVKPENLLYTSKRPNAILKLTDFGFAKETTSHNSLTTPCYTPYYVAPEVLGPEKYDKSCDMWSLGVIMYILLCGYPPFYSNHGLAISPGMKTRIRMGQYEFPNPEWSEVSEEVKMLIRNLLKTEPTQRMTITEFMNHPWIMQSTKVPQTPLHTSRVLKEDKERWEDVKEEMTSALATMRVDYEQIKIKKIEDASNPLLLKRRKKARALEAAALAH

| SMILES | kinase still bound, per cent of control [1] [%] | kinase still bound, per cent of control [2] [%] | kinase still bound, per cent of control [3] [%] | kinase still bound, per cent of control [4] [%] | kinase still bound, per cent of control [5] [%] | kinase still bound, per cent of control [6] [%] | kinase still bound, per cent of control [7] [%] | kinase still bound, per cent of control [8] [%] | kinase still bound, per cent of control [9] [%] | kinase still bound, per cent of control [10] [%] | kinase still bound, per cent of control [11] [%] | kinase still bound, per cent of control [12] [%] | kinase still bound, per cent of control [13] [%] | kinase still bound, per cent of control [14] [%] | kinase still bound, per cent of control [15] [%] | kinase still bound, per cent of control [16] [%] | kinase still bound, per cent of control [17] [%] | kinase still bound, per cent of control [18] [%] | kinase still bound, per cent of control [19] [%] | kinase still bound, per cent of control [20] [%] | other results |
| --- | --- | --- | --- | --- | --- | --- | --- | --- | --- | --- | --- | --- | --- | --- | --- | --- | --- | --- | --- | --- | --- |
| O=C(Nc1cccc(Nc2ncc(Br)c(NCCc3cnc[nH]3)n2)c1)N1CCCC1 | 0.2 | 0.1 | 18 | 100 | 0.35 | 0 | 0.1 | 3.2 | 100 | 0.1 | 62 | 2.2 | 1.2 | 25 | 61 | 6.2 | 69 | 30 | 0.6 | 8.4 | kinase still bound, per cent of control [21]: 1.3%; kinase still bound, per cent of control [22]: 0.25%; kinase still bound, per cent of control [23]: 11%; kinase still bound, per cent of control [24]: 24%; kinase still bound, per cent of control [25]: 0.8%; kinase still bound, per cent of control [26]: 4.8%; kinase still bound, per cent of control [27]: 28%; kinase still bound, per cent of control [28]: 95%; kinase still bound, per cent of control [29]: 0.5%; kinase still bound, per cent of control [30]: 0.1%; kinase still bound, per cent of control [31]: 0.35%; kinase still bound, per cent of control [32]: 24%; kinase still bound, per cent of control [33]: 0.45%; kinase still bound, per cent of control [34]: 5.6%; kinase still bound, per cent of control [35]: 13%; kinase still bound, per cent of control [36]: 47%; kinase still bound, per cent of control [37]: 0%; kinase still bound, per cent of control [38]: 34%; kinase still bound, per cent of control [39]: 100%; kinase still bound, per cent of control [40]: 0% |
| N#CCNC(=O)c1ccc(-c2ccnc(Nc3ccc(N4CCOCC4)cc3)n2)cc1 | 0.2 | 100 | 95 | 100 | 42 | 59 | 2.4 | 93 | 100 | 50 | 100 | 87 | 8.9 | 58 | 38 | 18 | 100 | 71 | 2.9 | 0.15 | kinase still bound, per cent of control [21]: 49%; kinase still bound, per cent of control [22]: 86%; kinase still bound, per cent of control [23]: 48%; kinase still bound, per cent of control [24]: 100%; kinase still bound, per cent of control [25]: 3.6%; kinase still bound, per cent of control [26]: 100%; kinase still bound, per cent of control [27]: 100%; kinase still bound, per cent of control [28]: 67%; kinase still bound, per cent of control [29]: 74%; kinase still bound, per cent of control [30]: 100%; kinase still bound, per cent of control [31]: 62%; kinase still bound, per cent of control [32]: 100%; kinase still bound, per cent of control [33]: 66%; kinase still bound, per cent of control [34]: 10%; kinase still bound, per cent of control [35]: 9.6%; kinase still bound, per cent of control [36]: 92%; kinase still bound, per cent of control [37]: 100%; kinase still bound, per cent of control [38]: 92%; kinase still bound, per cent of control [39]: 86%; kinase still bound, per cent of control [40]: 100% |
